Structures can show the parent of a compound that is named as a salt.

Drawing on patent publication US8889704B2 (Array BioPharma Inc., priority 2011, dated 2014), this text covers IC50 for 18 compounds.

Type in all cases: biochemical
Assay [1] concerns the target T1, GST-tagged recombinant full-length human Pim-2 (Homo sapiens, UniProt Q9P1W9).
T1 construct: GST-tagged recombinant full-length human Pim-2; GST
As to the kind of experiment: PIM-2 Assay (as Example A). The settings on record: averaged IC50; 4 μM ATP, 1.0 μM PIM2tide, 1.5 nM Pim-2. Summed up: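 IC50 was derived by 4-parameter logistic fitting of percent-of-control data over a 10-point, 3-fold series (highest 10 μM, 2% DMSO). Reactions held 1.5 nM GST-Pim-2 (full-length, human), 4 μM [γ-33P]ATP and 1.0 μM PIM2tide for 60 min at 22 °C, pH 7.4; 33P-peptide captured on P81 filters.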

In another assay the target is PIM-1 (Homo sapiens, UniProt P11309). As to the kind of experiment: Enzyme PIM-1 Assay ([33P]ATP incorporation into PIM2tide, filter plate). To be noted: averaged IC50; 35 μM ATP, 7.5 μM PIM2tide, 0.25 nM PIM-1, 60 min at 22° C. The gist of the method:
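Ten-point, 3-fold dilution series (10 μM top, 2% DMSO final) tested for inhibition of 33P transfer from 35 μM ATP to 7.5 μM PIM2tide by 0.25 nM PIM-1. Reaction 60 min, 22 °C, pH 7.4 MOPS/MgCl2 buffer; phosphocellulose capture, scintillation counting, IC50 where fitted POC equals 50.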

The next assay concerns the target recombinant rat PIM-3 (Rattus norvegicus, UniProt O70444). Kind of assay: PIM-3 Assay (as Example A). To be noted: averaged IC50; 30 μM ATP, 3.75 μM PIM2tide, 0.5 nM PIM-3. The gist of the method: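 33P incorporation from 30 μM [γ-33P]ATP into 3.75 μM PIM2tide by 0.5 nM rat PIM-3, 60 min at 22 °C in pH 7.4 MOPS buffer, read by P81 filter capture and scintillation counting. Compounds tested in 3-fold dilutions up to 10 μM final, 2% DMSO; percent-of-control data fitted by 4-parameter logistic for IC50.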

Chain of PIM-1 (P11309 whole entry, species assumed): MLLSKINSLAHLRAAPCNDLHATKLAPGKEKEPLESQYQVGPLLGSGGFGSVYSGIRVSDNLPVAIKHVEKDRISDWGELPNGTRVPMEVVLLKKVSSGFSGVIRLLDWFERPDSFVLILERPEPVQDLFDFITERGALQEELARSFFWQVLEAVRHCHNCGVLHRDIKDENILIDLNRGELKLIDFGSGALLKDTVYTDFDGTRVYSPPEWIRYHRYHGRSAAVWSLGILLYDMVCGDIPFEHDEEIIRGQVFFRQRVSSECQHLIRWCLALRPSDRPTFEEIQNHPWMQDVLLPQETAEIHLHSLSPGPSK
T1 sequence (Q9P1W9 whole entry): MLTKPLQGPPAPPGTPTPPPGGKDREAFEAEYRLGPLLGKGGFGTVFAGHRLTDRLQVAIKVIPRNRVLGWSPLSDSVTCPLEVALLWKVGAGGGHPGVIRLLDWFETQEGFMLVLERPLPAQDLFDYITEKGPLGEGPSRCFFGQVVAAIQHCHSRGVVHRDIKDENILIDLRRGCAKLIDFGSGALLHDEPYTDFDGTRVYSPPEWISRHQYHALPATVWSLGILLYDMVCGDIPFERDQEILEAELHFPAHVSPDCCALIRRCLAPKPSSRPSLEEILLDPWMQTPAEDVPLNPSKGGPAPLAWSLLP

For the compound `CCOCCOc1ccc2ccc(-c3nnc4ccc([C@H](N5CC[C@](C)(N)C5)C(F)(F)F)cn34)nc2c1` [Example 306, (S)-1-((S)-1-(3-(7-(2-ethoxyethoxy)quinolin-2-yl)-[1,2,4]triazolo[4,3-a]pyridin-6-yl)-2,2,2-trifluoroethyl)-3-methylpyrrolidin-3-amine], the IC50 stood at 281 nM in assay [1], 0.28 nM against PIM-1 and 0.7 nM at recombinant rat PIM-3.

For `C[C@H](c1ccc2nnc(-c3ccc4cccc(C(C)(C)C)c4n3)n2c1)N1CC[C@H](N)C1` [Example 307, (S)-1-((R)-1-(3-(8-tert-butylquinolin-2-yl)-[1,2,4]triazolo[4,3-a]pyridin-6-yl)ethyl)pyrrolidin-3-amine trihydrochloride], the IC50 in assay [1] was found to be 62.4 nM; against PIM-1, 1.64 nM; at recombinant rat PIM-3 it was 6.9 nM.

With `C[C@@H](c1ccc2nnc(-c3ccc4cccc(C(C)(C)C)c4n3)n2c1)N1CC[C@H](N)C1` [Example 308, (S)-1-((S)-1-(3-(8-tert-butylquinolin-2-yl)-[1,2,4]triazolo[4,3-a]pyridin-6-yl)ethyl)pyrrolidin-3-amine trihydrochloride], the IC50 was found to be 29.4 nM in assay [1], 0.17 nM on PIM-1 and 0.4 nM at recombinant rat PIM-3.

As for `CCOc1cc2nc(-c3nnc4ccc([C@@H](C)N5CC[C@H](N)C5)cn34)ccc2cc1F` [Example 309, (S)-1-((R)-1-(3-(7-ethoxy-6-fluoroquinolin-2-yl)-[1,2,4]triazolo[4,3-a]pyridin-6-yl)ethyl)pyrrolidin-3-amine trihydrochloride], the half-inhibitory concentration (IC50) in assay [1] came out at 407 nM; against PIM-1, 1.18 nM; at recombinant rat PIM-3, 3 nM.

Consider `CCOc1cc2nc(-c3nnc4ccc([C@H](C)N5CC[C@H](N)C5)cn34)ccc2cc1F` [Example 310, (S)-1-((S)-1-(3-(7-ethoxy-6-fluoroquinolin-2-yl)-[1,2,4]triazolo[4,3-a]pyridin-6-yl)ethyl)pyrrolidin-3-amine trihydrochloride], for which the IC50 worked out at 415 nM in assay [1], 0.46 nM at PIM-1 and 1.1 nM on recombinant rat PIM-3.

Turning to `COc1ccc2ccc(-c3nnc4ccc([C@H](N5CC[C@](C)(N)C5)C(F)(F)F)cn34)nc2c1` [Example 312, (S)-3-methyl-1-((S)-2,2,2-trifluoro-1-(3-(7-methoxyquinolin-2-yl)-[1,2,4]triazolo[4,3-a]pyridin-6-yl)ethyl)pyrrolidin-3-amine], the IC50 in assay [1] stood at 170 nM; against PIM-1, 0.24 nM; on recombinant rat PIM-3 it was 0.8 nM.

For `CC(C)Oc1ccc2ccc(-c3nnc4ccc([C@H](N5CC[C@](C)(N)C5)C(F)(F)F)cn34)nc2c1` [Example 314, (S)-3-methyl-1-((S)-2,2,2-trifluoro-1-(3-(7-isopropoxyquinolin-2-yl)-[1,2,4]triazolo[4,3-a]pyridin-6-yl)ethyl)pyrrolidin-3-amine], the results for the IC50 (in assay [1]; on PIM-1; at recombinant rat PIM-3) were 18.4 nM, 0.22 nM and 0.4 nM, respectively.

Take `COC[C@@H](C)Oc1ccc2ccc(-c3nnc4ccc([C@H](N5CC[C@](C)(N)C5)C(F)(F)F)cn34)nc2c1` [Example 315, (S)-3-methyl-1-((S)-2,2,2-trifluoro-1-(3-(7-(((R)-1-methoxypropan-2-yl)oxy)quinolin-2-yl)-[1,2,4]triazolo[4,3-a]pyridin-6-yl)ethyl)pyrrolidin-3-amine]: the IC50 was 25.7 nM in assay [1], 0.19 nM against PIM-1 and 0.4 nM at recombinant rat PIM-3.

As to `N[C@H]1CCN([C@H](c2ccc3nnc(-c4ccc5ccc(C6COC6)cc5n4)n3c2)C(F)(F)F)C1` [Example 316, (S)-1-((R)-2,2,2-trifluoro-1-(3-(7-(oxetan-3-yl)quinolin-2-yl)-[1,2,4]triazolo[4,3-a]pyridin-6-yl)ethyl)pyrrolidin-3-amine], the IC50 in assay [1] was 764 nM; at PIM-1 it was 0.48 nM; on recombinant rat PIM-3, 2.8 nM.

As to `C[C@]1(N)CCN([C@@H](c2ccc3nnc(-c4ccc5ccc(CCO)cc5n4)n3c2)C(F)(F)F)C1` [Example 317, 2-(2-(6-((S)-1-((S)-3-amino-3-methylpyrrolidin-1-yl)-2,2,2-trifluoroethyl)-[1,2,4]triazolo[4,3-a]pyridin-3-yl)quinolin-7-yl)ethanol], the figures for the IC50 (in assay [1]; against PIM-1; at recombinant rat PIM-3) were 194 nM, 0.34 nM and 0.4 nM, respectively.

For the compound `COCCOc1ccc2ccc(-c3nnc4ccc([C@@H](N5C[C@@H](N)[C@H](OC)C5)C(F)(F)F)cn34)nc2c1` [Example 318, (3R,4R)-4-methoxy-1-((R)-2,2,2-trifluoro-1-(3-(7-(2-methoxyethoxy)quinolin-2-yl)-[1,2,4]triazolo[4,3-a]pyridin-6-yl)ethyl)pyrrolidin-3-amine], the IC50 came out at 218 nM in assay [1], 0.94 nM at PIM-1 and 0.8 nM on recombinant rat PIM-3.

Take `Cc1oc(=O)oc1COC(=O)N[C@H]1CCN([C@H](c2ccc3nnc(-c4ccc5cc(F)c(OCCO)cc5n4)n3c2)C(F)(F)F)C1` [Example 321, (5-methyl-2-oxo-1,3-dioxol-4-yl)methyl ((S)-1-((R)-2,2,2-trifluoro-1-(3-(6-fluoro-7-(2-hydroxyethoxy)quinolin-2-yl)-[1,2,4]triazolo[4,3-a]pyridin-6-yl)ethyl)pyrrolidin-3-yl)carbamate]: the IC50 was determined as 1820 nM in assay [1], 1.68 nM on PIM-1 and 6.1 nM on recombinant rat PIM-3.

With `CO[C@@H](C)COc1cc2nc(-c3nnc4ccc([C@H](N5CC[C@](C)(N)C5)C(F)(F)F)cn34)ccc2cc1F` [Example 322, (S)-3-methyl-1-((S)-2,2,2-trifluoro-1-(3-(6-fluoro-7-((S)-2-methoxypropoxy)quinolin-2-yl)-[1,2,4]triazolo[4,3-a]pyridin-6-yl)ethyl)pyrrolidin-3-amine di-hydrochloride], the IC50 in assay [1] was determined as 22.7 nM; at PIM-1, 0.08 nM; on recombinant rat PIM-3 it was 0.1 nM.

Take `CO[C@@H](C)COc1cc2nc(-c3nnc4ccc([C@@H](N5CC[C@H](N)C5)C(F)(F)F)cn34)ccc2cc1F` [Example 323, (S)-1-((R)-2,2,2-trifluoro-1-(3-(6-fluoro-7-((S)-2-methoxypropoxy)quinolin-2-yl)-[1,2,4]triazolo[4,3-a]pyridin-6-yl)ethyl)pyrrolidin-3-amine di-hydrochloride]: the IC50 in assay [1] came out at 145 nM; at PIM-1, 0.14 nM; on recombinant rat PIM-3 it was 0.2 nM.

`CO[C@H](C)COc1cc2nc(-c3nnc4ccc([C@H](N5CC[C@](C)(N)C5)C(F)(F)F)cn34)ccc2cc1F` [Example 324, (S)-3-methyl-1-((S)-2,2,2-trifluoro-1-(3-(6-fluoro-7-((R)-2-methoxypropoxy)quinolin-2-yl)-[1,2,4]triazolo[4,3-a]pyridin-6-yl)ethyl)pyrrolidin-3-amine di-hydrochloride]: the half-maximal inhibitory concentration (IC50) stood at 44.6 nM in assay [1], 0.18 nM against PIM-1 and 0.21 nM on recombinant rat PIM-3.

As for `CO[C@H](C)COc1cc2nc(-c3nnc4ccc([C@@H](N5CC[C@H](N)C5)C(F)(F)F)cn34)ccc2cc1F` [Example 325, (S)-1-((R)-2,2,2-trifluoro-1-(3-(6-fluoro-7-((R)-2-methoxypropoxy)quinolin-2-yl)-[1,2,4]triazolo[4,3-a]pyridin-6-yl)ethyl)pyrrolidin-3-amine di-hydrochloride], the half-maximal inhibitory concentration (IC50) in assay [1] is 102 nM; at PIM-1 it was 0.06 nM; at recombinant rat PIM-3 it was 0.13 nM.

As to `COCCOc1ccc2cc(F)c(-c3nnc4ccc([C@@H](N5CC[C@H](N)C5)C(F)(F)F)cn34)nc2c1` [Example 326, (S)-1-((R)-2,2,2-trifluoro-1-(3-(3-fluoro-7-(2-methoxyethoxy)quinolin-2-yl)-[1,2,4]triazolo[4,3-a]pyridin-6-yl)ethyl)pyrrolidin-3-amine], the figures for the IC50 (in assay [1]; on PIM-1; at recombinant rat PIM-3) were 588 nM, 0.31 nM and 1.36 nM, respectively.

Regarding `CO[C@H](C)COc1ccc2cc(F)c(-c3nnc4ccc([C@@H](N5CC[C@H](N)C5)C(F)(F)F)cn34)nc2c1` [Example 328, (S)-1-((R)-2,2,2-trifluoro-1-(3-(3-fluoro-7-((R)-2-methoxypropoxy)quinolin-2-yl)-[1,2,4]triazolo[4,3-a]pyridin-6-yl)ethyl)pyrrolidin-3-amine], the IC50 turned out to be 748 nM in assay [1], 0.33 nM on PIM-1 and 1.39 nM at recombinant rat PIM-3.
